# How the values were obtained:
# Format in all cases: in vivo
# [1] = Inhibition of tetrabenazine induced depression of exploratory behavior in mice; settings: for Number Responded/Number Treated: intraperitoneally or orally, 1 h before tetrabenazine 30 mg/kg; for ED50: Mus musculus, calculated by method of Finney, dose column in mg/kg, read-out: ED50 (95% C.L.)
# Description: Varying doses of the test compounds are administered intraperitoneally or orally to 5 mice one hour before the administration of tetrabenazine hexamate at an intraperitoneal dose of 30 mg/kg which is known to depress markedly the exploratory behavior of normal mice. Thirty minutes later the mice are tested for their exploratoy behavior. Individual mice are placed in the center of a horizontal disc. Inhibition of the depression induced by tetrabenazine is considered present if the mice perform one or more of the following actions within 10 seconds after being placed on the disc:
# (1) Animals move to the edge of the disc and pear over the side.
# (2) Animals move 180° in place.
# (3) Animals display a head movement of 90° immediately followed by a head movement in the opposite direction of at least 45°.
# Administration of the test compounds to additional groups of 5 mice is repeated, the numbers of individual animals showing an anti-depressant response (normal exploratory behavior) is recorded and the results are analyzed by the following scheme (statistically standardized; significant P = less than 0.05).
# The results from several dose levels (acceptance in at least two sequential test procedures) are then used to establish the Range of Active Doses.
# [2] = Prevention of reserpine-induced hypothermia in rats; settings: for ED50: Rattus norvegicus, oral, dose column in mg/kg, read-out: ED50 (95% C.L.)
# Description: Groups of 5 rats were treated orally with graded doses of the test compounds. One hour later the animals were treated with reserpine (solubilized in propylene glycol and citric acid) at a dose of 5 mg/kg intraperitoneally. Rectal temperatures were measured using a YSI Telethermometer. Temperatures were recorded just prior to treatment, one hour later just prior to reserpine administration and at hourly intervals following reserpine administration for 5 hours. […]
# [3] = Enhancement of yohimbine lethality in mice; settings: 25 mg/kg intraperitoneal, yohimbine 34 mg/kg
# Description: The test compounds were administered intraperitoneally, at various dose levels, to groups of 10 mice. One hour later all mice received yohimbine at a dose (34 mg/kg) estimated to have a lethal effect in 4% of the mice. Deaths were recorded 18 to 24 hours later.
# [4] = 5 mg/kg oral, 2 hours after reserpine
# [5] = 5 mg/kg oral, 3 hours after reserpine
# [6] = 5 mg/kg oral, 4 hours after reserpine
# [7] = 5 mg/kg oral, 5 hours after reserpine
# [8] = 10 mg/kg oral, 2 hours after reserpine
# [9] = 10 mg/kg oral, 3 hours after reserpine
# [10] = 10 mg/kg oral, 4 hours after reserpine
# [11] = 10 mg/kg oral, 5 hours after reserpine
# [12] = 20 mg/kg oral, 2 hours after reserpine
# [13] = 20 mg/kg oral, 3 hours after reserpine
# [14] = 20 mg/kg oral, 4 hours after reserpine
# [15] = 20 mg/kg oral, 5 hours after reserpine
compound,measurement,setting,value
"CN1c2ccccc2N=C(N2CCN(CCO)CC2)c2cscc21 [4-(4-Methyl-4H-thieno[3,4-b][1,5]-benzodiazepin-10-yl)-1-piperazineethanol]",Number Responded/Number Treated,[1]; 1.56 mg/kg,5/30
same,Number Responded/Number Treated,[1]; 3.13 mg/kg,10/30
same,Number Responded/Number Treated,[1]; 6.25 mg/kg,9/20
same,Number Responded/Number Treated,[1]; 12.5 mg/kg,11/20
same,Number Responded/Number Treated,[1]; 25.0 mg/kg,10/20
same,ED50,[1],13 mg/kg
same,Percent of Animals Showing > Two Standard Deviations in Rectal Temperature Over Control Means,[2]; [4],0%
same,Percent of Animals Showing > Two Standard Deviations in Rectal Temperature Over Control Means,[2]; [5],0%
same,Percent of Animals Showing > Two Standard Deviations in Rectal Temperature Over Control Means,[2]; [6],0%
same,Percent of Animals Showing > Two Standard Deviations in Rectal Temperature Over Control Means,[2]; [7],0%
same,Percent of Animals Showing > Two Standard Deviations in Rectal Temperature Over Control Means,[2]; [8],80%
same,Percent of Animals Showing > Two Standard Deviations in Rectal Temperature Over Control Means,[2]; [9],80%
same,Percent of Animals Showing > Two Standard Deviations in Rectal Temperature Over Control Means,[2]; [10],80%
same,Percent of Animals Showing > Two Standard Deviations in Rectal Temperature Over Control Means,[2]; [11],80%
same,Percent of Animals Showing > Two Standard Deviations in Rectal Temperature Over Control Means,[2]; [12],100%
same,Percent of Animals Showing > Two Standard Deviations in Rectal Temperature Over Control Means,[2]; [13],80%
same,Percent of Animals Showing > Two Standard Deviations in Rectal Temperature Over Control Means,[2]; [14],80%
same,Percent of Animals Showing > Two Standard Deviations in Rectal Temperature Over Control Means,[2]; [15],40%
same,ED50,[2]; 2 hours after reserpine,9.1 mg/kg
same,ED50,[2]; 3 hours after reserpine,10.6 mg/kg
same,ED50,[2]; 4 hours after reserpine,10.6 mg/kg
same,ED50,[2]; 5 hours after reserpine,14.6 mg/kg
"CCN1c2ccccc2N=C(N2CCN(C)CC2)c2cscc21 [4-Ethyl-10-(4-methyl-1-piperazinyl)-4H-thieno[3,4-b][1,5]benzodiazepine]",Number Responded/Number Treated,[1]; 3.13 mg/kg,3/15
same,Number Responded/Number Treated,[1]; 6.25 mg/kg,10/30
same,Number Responded/Number Treated,[1]; 12.5 mg/kg,9/25
same,Number Responded/Number Treated,[1]; 25.0 mg/kg,9/20
same,ED50,[1],~37 mg/kg
same,Percent of Animals Showing > Two Standard Deviations in Rectal Temperature Over Control Means,[2]; [4],0%
same,Percent of Animals Showing > Two Standard Deviations in Rectal Temperature Over Control Means,[2]; [5],0%
same,Percent of Animals Showing > Two Standard Deviations in Rectal Temperature Over Control Means,[2]; [6],0%
same,Percent of Animals Showing > Two Standard Deviations in Rectal Temperature Over Control Means,[2]; [7],0%
same,Percent of Animals Showing > Two Standard Deviations in Rectal Temperature Over Control Means,[2]; [8],60%
same,Percent of Animals Showing > Two Standard Deviations in Rectal Temperature Over Control Means,[2]; [9],100%
same,Percent of Animals Showing > Two Standard Deviations in Rectal Temperature Over Control Means,[2]; [10],60%
same,Percent of Animals Showing > Two Standard Deviations in Rectal Temperature Over Control Means,[2]; [11],20%
same,Percent of Animals Showing > Two Standard Deviations in Rectal Temperature Over Control Means,[2]; [12],80%
same,Percent of Animals Showing > Two Standard Deviations in Rectal Temperature Over Control Means,[2]; [13],80%
same,Percent of Animals Showing > Two Standard Deviations in Rectal Temperature Over Control Means,[2]; [14],100%
same,Percent of Animals Showing > Two Standard Deviations in Rectal Temperature Over Control Means,[2]; [15],60%
same,ED50,[2]; 2 hours after reserpine,11.6 mg/kg
same,ED50,[2]; 3 hours after reserpine,8.7 mg/kg
same,ED50,[2]; 4 hours after reserpine,9.7 mg/kg
same,ED50,[2]; 5 hours after reserpine,16.9 mg/kg
same,Number Dead/Number Treated,[3]; 18 hours,7/10
same,Number Dead/Number Treated,[3]; 24 hours,8/10
"CN1c2ccccc2N=C(N2CCNCC2)c2cscc21 [4-Methyl-10-(1-piperazinyl)-4H-thieno[3,4-b][1,5]benzodiazepine]",Number Responded/Number Treated,[1]; 1.56 mg/kg,5/30
same,Number Responded/Number Treated,[1]; 3.13 mg/kg,10/30
same,Number Responded/Number Treated,[1]; 6.25 mg/kg,9/20
same,Number Responded/Number Treated,[1]; 12.5 mg/kg,11/20
same,Number Responded/Number Treated,[1]; 25.0 mg/kg,10/20
same,ED50,[1],13 mg/kg
"CCN1CCN(C2=Nc3ccccc3N(C)c3cscc32)CC1 [4-Methyl-10-(4-ethyl-1-piperazinyl)-4H-thieno[3,4-b][1,5]benzodiazepine]",Number Responded/Number Treated,[1]; 3.13 mg/kg,3/15
same,Number Responded/Number Treated,[1]; 6.25 mg/kg,10/30
same,Number Responded/Number Treated,[1]; 12.5 mg/kg,12/25
same,Number Responded/Number Treated,[1]; 25.0 mg/kg,10/25
same,ED50,[1],~35 mg/kg
"CN(C)CCCN1c2ccccc2CCc2ccccc21 [Imipramine, reference compound]",Number Responded/Number Treated,[1]; 0.78 mg/kg,1/10
same,Number Responded/Number Treated,[1]; 1.56 mg/kg,2/10
same,Number Responded/Number Treated,[1]; 3.13 mg/kg,4/10
same,Number Responded/Number Treated,[1]; 6.25 mg/kg,7/10
same,Number Responded/Number Treated,[1]; 12.5 mg/kg,7/10
same,Number Responded/Number Treated,[1]; 25.0 mg/kg,9/10
same,ED50,[1],4.4 mg/kg
same,Percent of Animals Showing > Two Standard Deviations in Rectal Temperature Over Control Means,"[2]; 0.20 mg/kg oral, 2 hours after reserpine",0%
same,Percent of Animals Showing > Two Standard Deviations in Rectal Temperature Over Control Means,"[2]; 0.20 mg/kg oral, 3 hours after reserpine",0%
same,Percent of Animals Showing > Two Standard Deviations in Rectal Temperature Over Control Means,"[2]; 0.20 mg/kg oral, 4 hours after reserpine",0%
same,Percent of Animals Showing > Two Standard Deviations in Rectal Temperature Over Control Means,"[2]; 0.20 mg/kg oral, 5 hours after reserpine",0%
same,Percent of Animals Showing > Two Standard Deviations in Rectal Temperature Over Control Means,"[2]; 0.39 mg/kg oral, 2 hours after reserpine",0%
same,Percent of Animals Showing > Two Standard Deviations in Rectal Temperature Over Control Means,"[2]; 0.39 mg/kg oral, 3 hours after reserpine",10%
same,Percent of Animals Showing > Two Standard Deviations in Rectal Temperature Over Control Means,"[2]; 0.39 mg/kg oral, 4 hours after reserpine",0%
same,Percent of Animals Showing > Two Standard Deviations in Rectal Temperature Over Control Means,"[2]; 0.39 mg/kg oral, 5 hours after reserpine",0%
same,Percent of Animals Showing > Two Standard Deviations in Rectal Temperature Over Control Means,"[2]; 0.78 mg/kg oral, 2 hours after reserpine",21%
same,Percent of Animals Showing > Two Standard Deviations in Rectal Temperature Over Control Means,"[2]; 0.78 mg/kg oral, 3 hours after reserpine",0%
same,Percent of Animals Showing > Two Standard Deviations in Rectal Temperature Over Control Means,"[2]; 0.78 mg/kg oral, 4 hours after reserpine",0%
same,Percent of Animals Showing > Two Standard Deviations in Rectal Temperature Over Control Means,"[2]; 0.78 mg/kg oral, 5 hours after reserpine",7%
same,Percent of Animals Showing > Two Standard Deviations in Rectal Temperature Over Control Means,"[2]; 1.56 mg/kg oral, 2 hours after reserpine",40%
same,Percent of Animals Showing > Two Standard Deviations in Rectal Temperature Over Control Means,"[2]; 1.56 mg/kg oral, 3 hours after reserpine",20%
same,Percent of Animals Showing > Two Standard Deviations in Rectal Temperature Over Control Means,"[2]; 1.56 mg/kg oral, 4 hours after reserpine",20%
same,Percent of Animals Showing > Two Standard Deviations in Rectal Temperature Over Control Means,"[2]; 1.56 mg/kg oral, 5 hours after reserpine",40%
same,Percent of Animals Showing > Two Standard Deviations in Rectal Temperature Over Control Means,"[2]; 3.13 mg/kg oral, 2 hours after reserpine",100%
same,Percent of Animals Showing > Two Standard Deviations in Rectal Temperature Over Control Means,"[2]; 3.13 mg/kg oral, 3 hours after reserpine",90%
same,Percent of Animals Showing > Two Standard Deviations in Rectal Temperature Over Control Means,"[2]; 3.13 mg/kg oral, 4 hours after reserpine",80%
same,Percent of Animals Showing > Two Standard Deviations in Rectal Temperature Over Control Means,"[2]; 3.13 mg/kg oral, 5 hours after reserpine",100%
same,Percent of Animals Showing > Two Standard Deviations in Rectal Temperature Over Control Means,"[2]; 6.25 mg/kg oral, 2 hours after reserpine",100%
same,Percent of Animals Showing > Two Standard Deviations in Rectal Temperature Over Control Means,"[2]; 6.25 mg/kg oral, 3 hours after reserpine",100%
same,Percent of Animals Showing > Two Standard Deviations in Rectal Temperature Over Control Means,"[2]; 6.25 mg/kg oral, 4 hours after reserpine",100%
same,Percent of Animals Showing > Two Standard Deviations in Rectal Temperature Over Control Means,"[2]; 6.25 mg/kg oral, 5 hours after reserpine",100%
same,Percent of Animals Showing > Two Standard Deviations in Rectal Temperature Over Control Means,"[2]; 12.5 mg/kg oral, 2 hours after reserpine",100%
same,Percent of Animals Showing > Two Standard Deviations in Rectal Temperature Over Control Means,"[2]; 12.5 mg/kg oral, 3 hours after reserpine",80%
same,Percent of Animals Showing > Two Standard Deviations in Rectal Temperature Over Control Means,"[2]; 12.5 mg/kg oral, 4 hours after reserpine",100%
same,Percent of Animals Showing > Two Standard Deviations in Rectal Temperature Over Control Means,"[2]; 12.5 mg/kg oral, 5 hours after reserpine",100%
same,ED50,[2]; 2 hours after reserpine,1.2 mg/kg
same,ED50,[2]; 3 hours after reserpine,2.2 mg/kg
same,ED50,[2]; 4 hours after reserpine,2.2 mg/kg
same,ED50,[2]; 5 hours after reserpine,1.3 mg/kg

# Source: patent US4087421A, “Substituted benzodiazepines and method of use” (American Cyanamid Company, priority 1977, dated 1978)
